# Source: patent US20040023910A1, “Use of cyr61 in the treatment and diagnosis of human uterine leiomyomas” (priority 2003, published 2004)
# What was measured:
# [1] = test system: Cyr61 in murine and human fibroblasts; details: Nathans et al. 1988; cited from earlier work
# [2] = test system: Cyr61 in leiomyoma tissues; experiment: Ex vivo treatment of leiomyoma explants with sex steroids and growth factors, Cyr61 mRNA by Northern blotting; format: cell-based, human; details: leiomyoma explants ex vivo (n=8), 10 nM E2 or 10 ng/ml bFGF, 1 h
# Source text: (§1) Study subjects and tissue procurement Uterine leiomyomas and matched myometrial specimens were obtained according to protocols approved by the Institutional Review Boards following routine hysterectomy at the Department of Obstetrics and Gynecology, Pennsylvania Hospital. Tissue samples were provided from patients between the ages of 38 to 53 (median age=45) who were not on hormone replacement therapy nor prescribed gonadotropin releasing hormone agonists (n=38). All but one patient had experienced normal menstrual cycles prior to surgery. Tissue specimens were immediately frozen in liquid nitrogen following hysterectomies for total RNA isolation or fixed in 10% neutral-buffered formalin for in situ hybridization. Tissues for ex vivo culturing were placed in phenol-red free DMEM/Ham's F12 media (Gibco BRL, Rockville, Md.) containing 100 U/ml penicillin, […], and 250 ng/ml amphotericine B as a fungizone and transported on ice.
# Northern blotting for Cyr61 and ER a Total cellular RNA was isolated from myometrial and leiomyoma tissue homogenates by guanidium isothiocynate lysis followed by phenol/chloroform extraction. Subsequently, total cellular RNA (20 μg) was subjected to electrophoresis in a 1% agarose gel containing 1 M formaldehyde. […]
# [3] = test system: Cyr61 transcript levels in myometrial tissue; experiment: Ex vivo treatment of myometrial explants with sex steroids and growth factors, Cyr61 mRNA by Northern blotting; format: cell-based, human
# Source text: as §1
# Northern blotting for Cyr61 and ER a Total cellular RNA was isolated from myometrial and leiomyoma tissue homogenates by guanidium isothiocynate lysis followed by phenol/chloroform extraction. Subsequently, total cellular RNA (20 μg) was subjected to electrophoresis in a 1% agarose gel containing 1 M formaldehyde. Separated RNA transcripts were transferred onto nylon membranes by […] and subsequently prehybridized at 60° C. in RapidHyb hybridization solution (Amersham, Arlington Heights, Ill.). A 0.41 kb human Cyr61 cDNA fragment was radiolabeled with [α-^32P]-dCTP (3,000 Ci/mmol) using the random-primer technique (Rediprime II, Amersham) and used as the hybridization probe. The radiolabeled probe (1×10^6 cpm/ml) was hybridized to membranes for 4 h at 60° C. Membranes were washed twice in 1×SSPE (0.15 M NaCl, […], and 0.01 M sodium phosphate, pH 7.4) and 0.1% SDS for 15 min at 25° C., followed by a final wash in 0.1×SSPE and 0.1% SDS for 5 min at 60° C. For estrogen receptor α (ERα) expression, membranes were reprobed with a 1.96 kb human ERα cDNA (1.96 kb full length coding region) that was radiolabeled with [α-^32P]-dCTP (3,000 Ci/mmol), hybridized and washed as described above. Relative levels of Cyr61 were normalized to glyceraldehyde-3-phosphate dehydrogenase (GAPDH) after reprobing membranes with a ^32P-radiolabeled oligonucleotide according to manufacturers protocol (endlabeling kit, GibcoBRL, Rockville, Md.).
# Tissue treatment with sex steroids and growth factors Tissue specimens obtained as described above were immediately minced into 1-2 mm pieces using sterilized scalpels and forceps and placed in phenol-red free DMEM/Ham's F12 containing antifingal and antibiotic agents only. […]
molecule,measurement,setting,value
"bFGF: basic fibroblast growth factor, purchased from R & D Systems, Inc.",induction of Cyr61,[1],induces Cyr61
same,upregulation of Cyr61 in leiomyoma tissues,[2],neither E2 nor bFGF was able to upregulate Cyr61
CCC(=O)[C@@]1(C)CC[C@H]2[C@@H]3CCC4=CC(=O)CCC4=C3CC[C@@]21C [R5020],effect on Cyr61 expression,"[3]; myometrial explants ex vivo, 10 nM R5020, 1 h",no effect on Cyr61 expression
same,synergy with E2 on Cyr61 expression,"[3]; myometrial explants ex vivo, combination of 10 nM E2 and 10 nM R5020, 1 h",nor did it synergize with E2
"C[C@]12CC[C@@H]3c4ccc(O)cc4CC[C@H]3[C@@H]1CC[C@@H]2O [E2, 17β-estradiol]",increase in Cyr61 transcript levels,"[3]; myometrial explants ex vivo (n=8), 1 h, 10 nM E2, 10 ng/ml bFGF or serum, normalized to GAPDH",greater than 2 fold
same,upregulation of Cyr61 in leiomyoma tissues,[2],neither E2 nor bFGF was able to upregulate Cyr61
"C[C@]12CC[C@@H]3c4ccc(O)cc4C[C@@H](CCCCCCCCC[S+]([O-])CCCC(F)(F)C(F)(F)F)[C@H]3[C@@H]1CC[C@@H]2O (stereo partly shown) [ICI 182,780]",inhibition of E2 mediated induction of Cyr61,"[3]; myometrial explants ex vivo, combination of 10 nM E2 and 1 μM ICI 182,780, 1 h",completely inhibited
